Assay results published in ChEMBL document CHEMBL1201862, “PubChem BioAssay data set” (2004).
Blank lines part the entries; values can stand above or below the molecule they belong to. The source made the active and inactive calls.

Legend:
[1] = target: Intestinal-type alkaline phosphatase (Homo sapiens, UniProt P09923); assay: human intestinal alkaline phosphatase activators, dose response, biochemical, luminescence, uHTS hits (AID 463120); type: functional
[2] = target: T1, Neuropeptides B/W receptor type 1 (Homo sapiens, UniProt P48145); assay: Fluorescence-based dose response cell-based high throughput screening assay to identify antagonists of the G-protein coupled receptor 7 (GPR7). [Related pubchem assays: 1952 (Screening assay (GPR7 antagonists).), 1880 (Summary AID.)]; type: functional
T1 sequence (P48145 whole entry): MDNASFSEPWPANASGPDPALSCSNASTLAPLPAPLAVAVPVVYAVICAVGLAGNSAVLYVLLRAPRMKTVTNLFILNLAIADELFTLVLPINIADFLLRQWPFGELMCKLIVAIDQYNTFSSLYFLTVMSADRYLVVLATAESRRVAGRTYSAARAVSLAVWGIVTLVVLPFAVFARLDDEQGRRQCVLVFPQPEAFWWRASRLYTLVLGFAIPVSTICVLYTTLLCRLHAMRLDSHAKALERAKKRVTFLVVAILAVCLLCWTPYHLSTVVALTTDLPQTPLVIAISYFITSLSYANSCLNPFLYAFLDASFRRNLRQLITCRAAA

[3] = target: Melanin-concentrating hormone receptor 1 (Homo sapiens, UniProt Q99705); assay: Fluorescence-based counterscreen for antagonists of the G-protein coupled receptor 7 (GPR7): cell-based high throughput dose response assay to identify antagonists of the melanin-concentrating hormone receptor 1 (MCHR1).; type: functional
[4] = target: T2, Kappa-type opioid receptor (Homo sapiens, UniProt P41145); assay: SAR analysis of small molecule agonists of the kappa opioid receptor via a luminescent beta-arrestin assay. [Related pubchem assays (depositor defined):AID1777, AID1786, AID1966, AID2133, AID2136, AID2348, AID2352, AID2357, AID2359, AID2370, AID2420, AID2478, AID2491, AID2492, AID2493, AID2497, AID2498, AID2500, AID449737, AID488822, AID488842]; type: functional
Mu-type opioid receptor [5] = target: T3, Mu-type opioid receptor (Homo sapiens, UniProt P35372); assay: MOR agonists by imaging, SAR follow-up, image-based (AID 2352); type: functional
[6] = target: T4, Delta-type opioid receptor (Homo sapiens, UniProt P41143); assay: DOR agonists, SAR follow-up, image-based (AID 2370); type: functional
[7] = target: T2, Kappa-type opioid receptor; assay: KOR antagonists by imaging, SAR follow-up, image-based (AID 2348); type: functional
Mu-type opioid receptor [8] = target: T3, Mu-type opioid receptor; assay: MOR antagonists, SAR follow-up, image-based (AID 2420); type: functional;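 also: compounds added before stimulation of receptor with agonist DAMGO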
[9] = target: T2, Kappa-type opioid receptor; assay: KOR agonist analogs, imaging readout, SAR follow-up, image-based (AID 2359); type: functional
[10] = target: T4, Delta-type opioid receptor; assay: DOR antagonists, SAR follow-up, image-based (AID 2357); type: functional
[11] = target: T5, Runt-related transcription factor 1/Core-binding factor subunit beta (Homo sapiens, UniProt Q01196+Q13951); assay: inhibitors of RUNX1 Runt–CBFb-SMMHC binding, primary screen, biochemical, FRET, Cerulean-Runt, Venus-CBFb-SMMHC, uHTS (AID 1434); type: protein assay;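 also: partner is the CBFb-SMMHC leukemia fusion protein rather than wild-type CBFb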
[12] = target: T5, Runt-related transcription factor 1/Core-binding factor subunit beta; assay: inhibitors of RUNX1 Runt–CBFb-SMMHC binding, biochemical, TR-FRET (AID 1438); type: protein assay
[13] = target: T4, Delta-type opioid receptor; assay: HTS Image-Based Screen for Antagonists of the DOR Receptor. [Related pubchem assays (depositor defined):AID1777, AID1785, AID1786, AID2133]; type: functional
Mu-type opioid receptor [14] = target: T3, Mu-type opioid receptor; assay: HTS Image-Based Screen for Agonists of the MOR Receptor. [Related pubchem assays (depositor defined):AID1777, AID1785, AID1786, AID2133]; type: functional
[15] = target: T4, Delta-type opioid receptor; assay: HTS Image-Based Screen for Agonists of the DOR Receptor. [Related pubchem assays (depositor defined):AID1777, AID1786, AID2133]; type: functional
[16] = target: T2, Kappa-type opioid receptor; type: functional
[17] = target: T2, Kappa-type opioid receptor; type: functional; remark: listed apart in the source

T3 sequence (P35372 whole entry): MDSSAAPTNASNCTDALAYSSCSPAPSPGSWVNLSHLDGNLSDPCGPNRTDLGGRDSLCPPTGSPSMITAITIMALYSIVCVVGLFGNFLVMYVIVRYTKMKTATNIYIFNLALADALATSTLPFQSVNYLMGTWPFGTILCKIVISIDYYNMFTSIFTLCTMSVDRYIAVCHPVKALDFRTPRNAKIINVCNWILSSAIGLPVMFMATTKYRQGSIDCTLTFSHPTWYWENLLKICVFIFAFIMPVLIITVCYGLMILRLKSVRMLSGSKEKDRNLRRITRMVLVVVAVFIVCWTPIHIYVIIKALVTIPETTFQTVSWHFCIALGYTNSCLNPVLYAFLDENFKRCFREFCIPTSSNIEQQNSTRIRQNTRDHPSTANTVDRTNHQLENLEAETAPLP
T4 sequence (P41143 whole entry): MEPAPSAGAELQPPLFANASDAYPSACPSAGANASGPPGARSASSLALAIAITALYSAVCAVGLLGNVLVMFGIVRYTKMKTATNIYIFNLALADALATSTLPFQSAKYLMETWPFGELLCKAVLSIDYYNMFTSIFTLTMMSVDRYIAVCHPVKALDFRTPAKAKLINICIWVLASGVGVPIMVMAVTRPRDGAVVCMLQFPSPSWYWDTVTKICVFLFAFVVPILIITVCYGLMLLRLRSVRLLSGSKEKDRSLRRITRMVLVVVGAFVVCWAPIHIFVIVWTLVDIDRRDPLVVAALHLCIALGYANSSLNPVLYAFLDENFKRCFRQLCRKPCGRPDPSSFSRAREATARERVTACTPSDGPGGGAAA
T2 sequence (P41145 whole entry): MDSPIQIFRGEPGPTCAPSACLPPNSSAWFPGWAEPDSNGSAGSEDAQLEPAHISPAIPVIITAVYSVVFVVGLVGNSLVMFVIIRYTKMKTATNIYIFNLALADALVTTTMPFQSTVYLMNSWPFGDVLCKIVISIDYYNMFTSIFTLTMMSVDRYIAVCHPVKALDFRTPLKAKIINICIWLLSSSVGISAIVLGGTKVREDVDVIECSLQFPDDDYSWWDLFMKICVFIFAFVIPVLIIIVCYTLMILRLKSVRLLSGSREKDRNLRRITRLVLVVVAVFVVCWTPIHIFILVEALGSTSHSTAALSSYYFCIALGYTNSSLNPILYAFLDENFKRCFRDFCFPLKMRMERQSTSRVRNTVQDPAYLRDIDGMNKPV
T5 sequence (Q01196 whole entry, the tested form may be a part): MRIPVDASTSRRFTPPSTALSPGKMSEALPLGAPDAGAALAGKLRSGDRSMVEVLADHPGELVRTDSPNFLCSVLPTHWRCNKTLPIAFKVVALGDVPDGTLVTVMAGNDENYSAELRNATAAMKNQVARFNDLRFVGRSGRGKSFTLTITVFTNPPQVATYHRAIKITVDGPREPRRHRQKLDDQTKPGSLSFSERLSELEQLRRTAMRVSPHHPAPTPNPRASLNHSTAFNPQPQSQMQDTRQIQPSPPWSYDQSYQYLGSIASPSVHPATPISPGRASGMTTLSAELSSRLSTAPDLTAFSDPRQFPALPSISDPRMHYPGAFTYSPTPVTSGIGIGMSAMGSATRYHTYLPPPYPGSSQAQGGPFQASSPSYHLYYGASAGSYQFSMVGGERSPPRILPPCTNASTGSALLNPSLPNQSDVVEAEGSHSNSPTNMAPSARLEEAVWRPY
T5 sequence (Q13951 whole entry, the tested form may be a part): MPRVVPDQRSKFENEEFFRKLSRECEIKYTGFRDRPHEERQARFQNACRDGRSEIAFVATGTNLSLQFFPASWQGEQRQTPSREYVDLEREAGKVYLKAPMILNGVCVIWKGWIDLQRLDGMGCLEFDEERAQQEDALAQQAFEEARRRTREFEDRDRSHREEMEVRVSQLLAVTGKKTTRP
Sequence of Intestinal-type alkaline phosphatase (P09923 whole entry): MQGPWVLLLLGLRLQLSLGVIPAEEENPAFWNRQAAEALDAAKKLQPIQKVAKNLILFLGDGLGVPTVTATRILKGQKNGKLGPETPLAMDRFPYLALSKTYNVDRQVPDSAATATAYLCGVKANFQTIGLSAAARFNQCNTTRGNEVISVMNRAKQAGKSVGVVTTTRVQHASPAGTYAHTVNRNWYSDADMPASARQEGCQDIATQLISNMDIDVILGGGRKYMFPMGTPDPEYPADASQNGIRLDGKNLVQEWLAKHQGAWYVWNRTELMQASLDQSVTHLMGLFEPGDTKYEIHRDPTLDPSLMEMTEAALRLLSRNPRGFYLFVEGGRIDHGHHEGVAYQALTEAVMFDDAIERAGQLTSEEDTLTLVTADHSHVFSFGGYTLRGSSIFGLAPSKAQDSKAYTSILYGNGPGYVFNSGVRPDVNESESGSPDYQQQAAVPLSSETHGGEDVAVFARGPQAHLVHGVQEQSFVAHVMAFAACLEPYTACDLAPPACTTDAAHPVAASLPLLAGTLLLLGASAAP
Sequence of Melanin-concentrating hormone receptor 1 (Q99705 whole entry): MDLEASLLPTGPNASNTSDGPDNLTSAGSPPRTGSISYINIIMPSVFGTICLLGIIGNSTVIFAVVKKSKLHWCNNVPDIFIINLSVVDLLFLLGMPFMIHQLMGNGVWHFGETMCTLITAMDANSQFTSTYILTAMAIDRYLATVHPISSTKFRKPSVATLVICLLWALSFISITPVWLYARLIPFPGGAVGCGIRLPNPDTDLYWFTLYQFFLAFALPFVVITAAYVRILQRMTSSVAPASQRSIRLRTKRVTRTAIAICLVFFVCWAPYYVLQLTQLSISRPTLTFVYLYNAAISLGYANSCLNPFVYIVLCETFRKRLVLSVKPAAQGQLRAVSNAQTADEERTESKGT

EC50 [1]: 12.7 µM (active)
SMILES: Cc1cc(C)c2nc(SCC(=O)NNC(=O)c3ccco3)c(C)cc2c1

IC50 [2]: > 43.8 µM (not active)
IC50 [3]: > 43.8 µM (not active)
EC50 [4]: > 10 µM (inactive)
EC50 (Mu-type opioid receptor [5]): > 32 µM (inactive)
EC50 [6]: > 32 µM (inactive)
IC50 [7]: > 32 µM (inactive)
IC50 (Mu-type opioid receptor [8]): > 32 µM (inactive)
EC50 [9]: > 32 µM (inactive)
IC50 [10]: > 32 µM (inactive)
SMILES: O=C(c1cnccn1)N(Cc1ccco1)C1(C(=O)NC2CCCC2)CCCCC1

IC50 [11]: > 100 µM (inactive)
IC50 [12]: > 100 µM (inactive)
SMILES: CC(C)C(=O)N(c1cc2sc(=O)oc2c2ccccc12)S(=O)(=O)c1cccs1

IC50 [13]: > 32 µM (inactive)
EC50 (Mu-type opioid receptor [14]): > 32 µM (inactive)
EC50 [15]: > 32 µM (inactive)
EC50 [16]: > 35 µM
EC50 [17]: 3.55 µM
SMILES: O=C(c1ccc([N+](=O)[O-])cc1)N(Cc1ccc(Br)cc1)N1C(=O)CCCC1=O
